Measurements: patent US20090047221A1 (NIPRI LIMITED, priority 2004, published 2009)

How the values were obtained:
Format in all cases: cell-based
[1] = tested on: breast cancer (MDA-MB-468 and MCF-7 cell lines) and melanoma cell lines (MalMe3, SkMe128); test: Cell cycle analysis by flow cytometry (propidium iodide); apoptosis as cells in sub G0/G1 (pre G0) peak; conditions: following treatment with IC70 concentration of compound
Description: Assessment of cell cycle analysis was performed using propidium iodide staining of cells and subsequent analysis on a Beckton Dickinson flow cytometer. […] The following day the medium was removed and replaced with 5 ml medium per flask containing the appropriate drug concentrations to be tested. 40 mg/ml stock drug solutions in DMSO were stores at −20° C. and on the day off drug treatment working solutions of 4 mg/ml were prepared in medium from which the final drug dilutions were prepared. Cells were maintained in an incubator (37° C., 5% CO2) for up to 96 h post treatment. After 24, 48, 72 or 96 h time points the medium from each flask was collected, stored on ice, and the remaining cells in the flasks were trypsinised by aiding 1 ml trypsin-EDTA solution to each flask. Cells were replaced into the incubator for 10 min to allow them to detach from the plastic plate. The cells in each flask were collected by adding the appropriate medium removed from each flask back to the corresponding flask and then placing medium containing both the attached and floating cells into a 15 ml tube. Cells were centrifuged at 4° C. for 5 min at 1500 rpm and the supernatant removed from each tube. The remaining cells were washed twice in ice cold PBS and then fixed in ice cold methanol overnight at −20° C. On the day of analysis of cells each tube was centrifuged at 4° C. for 5 min at 1500 rpm and the methanol removed and the cells washed twice in ice cold PBS. 20 μl propidium iodide solution (1 mg/ml) and 20 μl RNase A (10 mg/ml solution) were added to 1 ml PBS per tube and the cells were incubated for 30 min at 37° C. Cells were analysed on the flow cytometer and cell cycle changes were assessed.

[2] = tested on: MalMe3M; test: MTT assay (anti-proliferative activity); conditions: 96 h continual exposure, read-out: IC 50 MalMe3M
[3] = tested on: MDA-MB-468; test: MTT assay (anti-proliferative activity); conditions: 96 h continual exposure, read-out: IC 50 MDA-MB-468
[4] = tested on: MCF-7; test: MTT assay (anti-proliferative activity); conditions: 96 h continual exposure, read-out: IC 50 MCF-7
[5] = tested on: SkMel28; test: MTT assay (anti-proliferative activity); conditions: 96 h continual exposure, read-out: IC 50 SkMel28
[6] = tested on: PNT2; test: MTT assay (anti-proliferative activity)
Description: (§1) The MTT assay was used initially to determine the anti-proliferative activity of the test compounds. In the MTT assay a yellow thiazolyl blue tetrazolium bromide salt (MTT) is reduced, in metabolically active cells, to form insoluble purple formazan crystals which are solubilised by the addition of dimethyl sulphoxide (DMSO). Absorbance readings can then be determined spectrophotometrically and a relationship established between control untreated cells and drug treated cells enabling the quantification of anti-proliferative changes as a result of drug treatment (Mosmann, 1983).
(§2) Wells containing medium only were used as blanks. Following the attachment period, cells were treated with appropriate drug concentrations (20 μl added per well). 40 mg/ml stock drug solutions, in DMSO, were stored at −20° C. and on the day of drug treatment working solutions of 4 mg/ml were prepared in medium which was further diluted to achieve final drug dilution volumes of 20 μl. Initial screening was determined over a concentration range of 1-200 μg/ml. For potent compounds the assay was repeated over a narrower concentration range to determine accurate IC50 values. Cells were exposed to drug for 96 h continual exposure (37° C., 5% CO2). Following the 96 h incubation, 50 μl MTT solution (1 g MTT/500 ml PBS) was added per well and the plates were further incubated for 4 h (37° C., 5% CO2). After incubation the MTT and medium was removed from the wells and 100 μl DMSO added per well. Plates were agitated on an orbital mixer platform (Stuart Scientific) for 10 minutes. Absorbance was measured at 570 nm on a Biotrak II (Amersham Bioscience) plate reader. IC50 values were calculated comparing control and drug treated cells.

[7] = tested on: HCT+/+; test: MTT assay (anti-proliferative activity)
Description: as §1, §2

[8] = tested on: HT29; test: MTT assay (anti-proliferative activity)
Description: as §1, §2

[9] = tested on: RKO; test: MTT assay (anti-proliferative activity)
Description: as §1, §2

[10] = tested on: HCT−/−; test: MTT assay (anti-proliferative activity)
Description: as §1, §2

[11] = tested on: ZR-75-1; test: MTT assay (anti-proliferative activity)
Description: as §1, §2

[12] = tested on: LNCAP; test: MTT assay (anti-proliferative activity)
Description: as §1, §2

[13] = tested on: H23; test: MTT assay (anti-proliferative activity)
Description: as §1, §2

[14] = tested on: PC3; test: MTT assay (anti-proliferative activity)
Description: as §1, §2

| IC50 [3] | IC50 [4] | IC50 [7] | IC50 [8] | IC50 [10] | IC50 [12] | IC50 [14] | Structure (SMILES) | % Cells in Pre G0 phase of Cell Cycle [1] | IC50 [2] | IC50 [5] | IC50 [6] | IC50 [9] | IC50 [11] | IC50 [13] |
| --- | --- | --- | --- | --- | --- | --- | --- | --- | --- | --- | --- | --- | --- | --- |
| 12.8 µM | 43.4 µM | – | – | – | – | – | CC(C)CC(NC(=O)c1ccc2c(c1O)C(=O)OC(C)C2)C(=O)OC(C)(C)C (mixture of isomers) [ALM-55, Leucine Tert-Butyl Ester Amide] | 3.4% | 22.9 µM | 79.2 µM | – | – | – | – |
| 4.3 µM | 2.3 µM | 21.3 µM | 18.7 µM | 42.7 µM | 10.7 µM | 9.6 µM | CCCCC/C=C\C/C=C\C/C=C\CCCCCOC(=O)c1ccc2c(c1O)C(=O)OC(C)C2 (racemic) [ALM-43, γ-Linolenyl Ester] | 11.8% | 23.5 µM | 21.3 µM | 5.3 µM | 10.7 µM | 6.4 µM | 2.1 µM |
| 3.3 µM | 26.2 µM | – | – | – | – | – | CCCCCCNC(=O)c1ccc2c(c1O)C(=O)OC(C)C2 (racemic) [ALM-49, Hexyl Amide] | 14.1% | 65.5 µM | 105 µM | – | – | – | – |

| Structure (SMILES) | IC50 [3] | IC50 [4] | IC50 [7] | IC50 [8] | IC50 [10] | IC50 [12] | IC50 [14] | % Cells in Pre G0 phase of Cell Cycle [1] | IC50 [2] | IC50 [5] | IC50 [6] | IC50 [9] | IC50 [11] | IC50 [13] |
| --- | --- | --- | --- | --- | --- | --- | --- | --- | --- | --- | --- | --- | --- | --- |
| CC1(C)Cc2ccc(C(=O)N[C@@H](Cc3ccccc3)C(=O)O)c(O)c2C(=O)O1 [ALM-74, L-Phenyl Alanine Amide of Compound ALM-73] | 1.83 µM | 2.21 µM | – | – | – | – | – | 34.4% | 7.8 µM | 11.7 µM | – | – | – | – |
